Assay in all cases: NCI anticancer screen, dose series, 48 h
Experiment [1] deals with OVCAR-5 ovarian.
In experiment [2] the test system is MDA-N.
In experiment [3] the test system is HCC-2998 colon.
For experiment [4], the system named is SK-OV-3 ovarian.
Experiment [5] relates to EKVX NSCLC.
In experiment [6] the test system is MDA-MB-435.
The subject of experiment [7] is A549 NSCLC.
Experiment [8] relates to DU-145 prostate.
Experiment [9] concerns HCT-15 colon.
Experiment [10] relates to TK-10 renal.
Experiment [11] has as its system NCI-H226 lung.
The subject of experiment [12] is HOP-92 NSCLC.
Experiment [13] concerns RPMI-8226 leukemia.
The test system of experiment [14] is M14 melanoma.
Experiment [15] relates to HS 578T breast.
Experiment [16] has as its system SK-MEL-5 melanoma.

Structures are written as SMILES.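 48-hour exposure; five concentrations; linearly interpolated endpoints. TGI: concentration producing complete growth inhibition.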

Turning to `C[N+]12CCCCC1C(COc1cccc3cccnc13)CCC2` (stereo not drawn), the TGI in [1], in [2], in experiment [3], in experiment [4], in experiment [5] and in experiment [6] was greater than 100 µM throughout. Also, the TGI in [7], in experiment [8], in experiment [9], in experiment [10], in experiment [11] and in experiment [12] was greater than 100 µM in each case. Further, the TGI in experiment [13], in experiment [14], in [15] and in experiment [16] was greater than 100 µM each time.

Take `COC(=O)C1C2OC(C)(C)OC2CN1S(=O)(=O)c1ccc(C)cc1` (stereo not drawn): the TGI in [1], in experiment [2], in experiment [3], in experiment [4], in experiment [5] and in [6] was greater than 100 µM in each case. For the same compound, the TGI was greater than 100 µM in experiment [7]; greater than 100 µM in experiment [8]; greater than 100 µM in experiment [9]; greater than 100 µM in experiment [10]; 41.1 µM in [11]; greater than 100 µM in experiment [12]. Further, the TGI in experiment [13], in experiment [14], in experiment [15] and in experiment [16] was greater than 100 µM each time.

As for `COc1nn(Cc2ccccn2)c2ccc([N+](=O)[O-])cc12`, the TGI in experiment [1] was greater than 100 µM; in experiment [2] it was 95.5 µM; in [3], greater than 100 µM; in [4] it was greater than 100 µM; in experiment [5], greater than 100 µM; in experiment [6], greater than 100 µM. Also, the TGI in [7] was greater than 100 µM; in experiment [8], greater than 100 µM; in [9] it was greater than 100 µM; in [10], greater than 100 µM; in [11] it was greater than 100 µM; in experiment [12], 84.2 µM. Besides, the TGI is greater than 100 µM in experiment [13], greater than 100 µM in experiment [14], 88 µM in experiment [15] and greater than 100 µM in experiment [16].

On to `CC(C)OC(=O)c1ccc(NCC2=CC(=O)C=CC2=O)cc1`, for which the TGI is 38.9 µM in experiment [1]; 29.2 µM in experiment [2]; 38.2 µM in experiment [3]; greater than 100 µM in [4]; 31.7 µM in experiment [5]; 26.4 µM in [6]. In addition, the TGI in experiment [7] was greater than 100 µM; in [8], 35.8 µM; in experiment [9] it was 25.5 µM; in [10] it was 28.6 µM; in experiment [11] it was greater than 100 µM; in experiment [12], 8.83 µM. For the same compound, the TGI is greater than 24.8 µM in experiment [13], 28.3 µM in experiment [14], 65.4 µM in [15] and 32.2 µM in [16].

For the compound `O=C1c2ccccc2-c2nnc(-c3ccc([N+](=O)[O-])cc3)cc21`, the TGI in experiment [1], in experiment [2], in [3], in [4], in [5] and in [6] was greater than 10 µM each time. The TGI in experiment [7], in [8], in experiment [9], in experiment [10], in experiment [11] and in experiment [12] was greater than 10 µM each time. In addition, the TGI in [13], in experiment [14], in experiment [15] and in [16] was greater than 10 µM each time.

Turning to `CC(NC(=O)OCc1ccccc1)NC(=O)OC(C)(C)C` (stereo not drawn), the TGI in experiment [1], in experiment [2], in experiment [3], in [4], in experiment [5] and in [6] was greater than 100 µM throughout. Moreover, the TGI in [7], in experiment [8], in experiment [9], in experiment [10], in [11] and in experiment [12] was greater than 100 µM each time. The TGI in experiment [13], in [14], in experiment [15] and in experiment [16] was greater than 100 µM throughout.

Turning to `CC1=CC[C@H](C[C@H](C#CCCCC2OCCO2)O[Si](C(C)C)(C(C)C)C(C)C)C(=O)CC1`, the TGI in [1], in experiment [2], in [3], in experiment [4], in experiment [5] and in experiment [6] was greater than 100 µM each time. Moreover, the TGI in experiment [7], in [8], in experiment [9], in [10], in experiment [11] and in experiment [12] was greater than 100 µM each time. In addition, the TGI in experiment [13], in experiment [14], in experiment [15] and in experiment [16] was greater than 100 µM in each case.

With `O=C(CSc1ncccn1)N/N=C/c1ccccc1OCc1ccccc1`, the TGI is greater than 100 µM in [1]; 60.9 µM in experiment [2]; 95.1 µM in experiment [3]; greater than 100 µM in [4]; 83.1 µM in [5]; 31.5 µM in experiment [6]. Besides, the TGI in experiment [7] was greater than 100 µM; in experiment [8] it was 96.7 µM; in experiment [9], 65.1 µM; in experiment [10] it was 62.4 µM; in experiment [11], 55.1 µM; in experiment [12], 78.3 µM. The TGI is 43.6 µM in [13], greater than 100 µM in experiment [14], 95.3 µM in experiment [15] and 28.4 µM in experiment [16].

With `CC12Nc3c(Cl)cc(Cl)cc3N1C(=O)c1ccccc12` (stereo not drawn), the TGI in [1], in [2], in experiment [3], in experiment [4], in experiment [5] and in experiment [6] was greater than 100 µM each time. Also, the TGI is greater than 100 µM in [7]; greater than 100 µM in experiment [8]; greater than 100 µM in [9]; greater than 100 µM in [10]; greater than 100 µM in [11]; 82.1 µM in experiment [12]. The TGI in [13], in experiment [15] and in experiment [16] was greater than 100 µM in each case.

Source of the values: PubChem BioAssay (NCI).
